# In patent US6114327A, “Anti-viral compounds” (Eli Lilly and Company, priority 1999, dated 2000):
# System: rhinovirus, HRV-14
# Assay: Anti-picornaviral plaque reduction assay
# Format: cell-based
# Details: Rhinovirus B, HRV14, Table 1, 50% inhibition of plaque formation, BSC-1 or Hela cells, 120 hours at 32° C., trans isomer
row,IC50,Structure (SMILES)
1,0.05 µg/mL,"CC(C)S(=O)(=O)n1c(N)nc2ccc(/C(=N/O)c3ccccc3)cc21 [13 (parent), reference compound]"
2,0.05 µg/mL,"CC(C)S(=O)(=O)n1c(N)nc2ccc(/C(=C/S(C)(=O)=O)c3cccc(F)c3F)cc21 [Example 8, Trans 1-Isopropylsulfonyl-2-Amino-6-(1-[2,3-Difluorophenyl]-2-Methylsulfonylethen-1-yl)benzimidazole]"
3,2.58 µg/mL,"CS/C=C(\c1ccccc1)c1ccc2nc(N)n(S(=O)(=O)C(C)C)c2c1 [9 (parent), reference compound]"
4,3.52 µg/mL,"CC(C)S(=O)(=O)n1c(N)nc2ccc(/C(=C/[S+](C)[O-])c3ccccc3)cc21 (centres unmarked) [10 (parent), reference compound]"
5,0.072 µg/mL,"CS/C=C(/c1ccc2nc(N)n(S(=O)(=O)C(C)C)c2c1)c1cccc(F)c1F [Example 9, 1-Isopropylsulfonyl-2-Amino-6-(1-[2,3-Difluorophenyl]-2-Methylsulfidoethen-1-yl)benzimidazole]"
6,0.052 µg/mL,COC(=O)/C=C(/c1ccc2nc(N)n(S(=O)(=O)C(C)C)c2c1)c1cccc(F)c1F [Example 12]
7,0.048 µg/mL,"CC(=O)/C=C(/c1ccc2nc(N)n(S(=O)(=O)C(C)C)c2c1)c1cccc(F)c1F [Example 11, Trans 1-Isopropylsulfonyl-2-Amino-6-(1-[2,3-Difluorophenyl]-2-(1-Oxoeth-1-yl)ethen-1-yl)benzimidazole]"
8,0.051 µg/mL,"CC(C)S(=O)(=O)n1c(N)nc2ccc(/C(=N/O)c3cccc(F)c3F)cc21 [Example 13, Trans 1-Isopropylsulfonyl-2-Amino-6-(1-[2,3-Difluorophenyl]oximyl)benzimidazole]"
9,0.394 µg/mL,CC(C)S(=O)(=O)n1c(N)nc2ccc(/C(=C/[S+](C)[O-])c3cccc(F)c3F)cc21 (centres unmarked) [Example 10]
10,0.05 µg/mL,"COC(=O)/C=C(\c1ccccc1)c1ccc2nc(N)n(S(=O)(=O)C(C)C)c2c1 [12 (parent), reference compound]"
11,0.21 µg/mL,"CC(=O)/C=C(\c1ccc(F)cc1)c1ccc2nc(N)n(S(=O)(=O)C(C)C)c2c1 [Example 14, 1-Isopropylsulfonyl-2-Amino-6-(1-[4-Fluorophenyl]-2-(1-Oxoeth-1-yl)ethen-1-yl)benzimidazole]"
